Source: patent publication US12295959B2 (priority 2021, dated 2025)

Experiments:
5-HT2A [1] = molecular target: T1, 5-HT2A (Homo sapiens, UniProt P28223); test: Serotonin 5-HT2A in vitro cellular IPOne antagonism assay; assay type: cell-based; parameters: host or cells: CHO-K1; conditions: CHO-K1 cells, antagonist mode, reference agonist a-Me-5HT
Procedure: (§1) Serotonin 5-HT2A and 5-HT2C In Vitro Cellular IPOne Antagonism Assay. The 5-HT2A IPOne HTRF assay was performed at Epics Therapeutics S.A. (Belgium, FAST-0505I) in antagonism mode using conventional methods. Briefly, CHO-K1 cells expressing human recombinant 5-HT2A receptor grown to mid-log phase in culture media without antibiotics were detached with PBS-EDTA, centrifuged, and resuspended in medium without antibiotics buffer. 20,000 cells were distributed in a 96 well plate and incubated overnight at 37° C. with 5% CO2.
For antagonist testing, a reference agonist a-Me-5HT was added and fluorescence signal monitored for several minutes, followed by addition of 20 μl of assay buffer plus 20 μl of test compound or reference antagonist ketanserin, in each well. The plate was incubated for 60 min. at 37° C. with 5% CO2.
(§2) After addition of the lysis buffer containing IP1-d2 and anti-IP1 cryptate detection reagents, plates were incubated 1-hour at room temperature, and fluorescence ratios were measured according to the manufacturer specification, with the HTRF kit.

5-HT2A [2] = molecular target: T1, 5-HT2A; test: Serotonin 5-HT2A in vitro cellular IPOne agonism assay (HTRF); assay type: cell-based; parameters: host or cells: CHO-K1; conditions: CHO-K1 cells, agonist mode
Procedure: as §1, with “5-HT2A” for “5-HT2A and 5-HT2C”, “Agonism” for “Antagonism”, “FAST-0505I)” for “FAST-0505I) in antagonism mode”
For agonist testing, the medium was removed and 20 μl of assay buffer plus 20 μl of test compound or reference agonist are added in each well. The plate was incubated for 60 min. at 37° C. with 5% CO2.
as §2

5-HT2A [3] = molecular target: T1, 5-HT2A; test: Serotonin 5-HT2A in vitro radioligand binding competition assay ([3H]-DOI); parameters: purchased Epics Therapeutics S.A. (Belgium) FAST-0505B; host or cells: membrane extracts; conditions: [3H]-DOI competition, membrane extracts
Procedure: Serotonin 5-HT2A In Vitro Radioligand Binding Competition Assay. The 5-HT2A radioligand binding competition assay was performed at Epics Therapeutics S.A. (Belgium, FAST-0505B) using conventional methods. Briefly, competition binding was performed in duplicate in the wells of a 96 well plate (Master Block, Greiner, 786201) containing binding buffer (optimized for each receptor), membrane extracts (amount of protein/well optimized for each receptor), radiotracer [^3H]-DOI (final concentration optimized for each receptor) and test compound. Nonspecific binding was determined by co-incubation with 200-fold excess of cold competitor. The samples were incubated in a final volume of 0.1 ml at a temperature and for a duration optimized for each receptor and then filtered over filter plates. Filters were washed six times with 0.5 ml of ice-cold washing buffer (optimized for each receptor) and 50 μl of Microscint 20 (Packard) was added in each well. The plates were incubated 15 min on an orbital shaker and then counted with a TopCount™ for 1 min/well.

rat cortical neurons = test: Neurite outgrowth assay; assay type: cell-based; parameters: key: A: Statistically significant mean increase as a percent of DMSO control at 10 μM or less.; B: No statistically significant mean increase as a percent of DMSO control at 10 μM or less; conditions: 72 h, 10 μM or less, vs DMSO control
From the text: Neurite Outgrowth Assay. Changes in the pattern of neurite outgrowth have been implicated in psychiatric and neurodegenerative disorders as well as traumatic injuries. The discovery of new compounds that can positively affect neuritogenesis are important for developing new therapeutics for neurological diseases. Measurement of neurite outgrowth of rat cortical neurons using an automated image-based assay was used to determine the neuroplastic effects of the compounds of the present invention. The neurite outgrowth assay was performed at Neurofit SAS (France) as described below.
Pregnant Wistar rats (Janvier; France) were used for the study. They were delivered 6 days before their use. Upon arrival at Neurofit animal facility, they were housed one per cage and maintained in a room with controlled temperature (21-22° C.) and a reversed light-dark cycle (12 h/12 h; lights on: 17:30-05:30; lights off: 05:30-17:30) with food and water available ad libitum.
Female Wistar rats of 17 days gestation were killed by cervical dislocation and the fetuses were removed from the uterus. Their brains were placed in ice-cold medium of Leibovitz (L15, Gibco, Fisher bioblock, France). Cortices were dissected and meninges were carefully removed. The cortical neurons were dissociated by trypsinization for 30 min at 37° C. (trypsin-EDTA, Gibco) in presence of 0.1 mg/ml DNAse I (Roche, France). The reaction was stopped by addition of Dulbecco's Modified Eagle Medium (DMEM; Gibco) with 10% of fetal bovine serum (FBS; Gibco). The suspension was triturated with a 10-ml pipette and using a needle syringe 21G and centrifuged at 350×g for 10 min at room temperature. The pellet of dissociated cells was resuspended in a medium consisting of Neurobasal (Gibco) supplemented with 2% B27 supplement (Gibco), 0.5 mM L-Glutamine (Gibco), an antibiotic-antimicotic mixture. Viable cells were counted in a Neubauer cytometer using the trypan blue exclusion test (Sigma). Cells were seeded at a density of 10000 cells per well in 96-well plate (Costar) precoated with poly-L-lysine. Test compound at different concentrations were added to the cultures. Donepezil (positive control) was tested at 250 nM.
After 72 h (3 days) of plating, cultures were fixed with paraformaldehyde in PBS (4%, Sigma) for 30 min at 4° C. Then, cells were successively permeabilized with 0.1% Triton X100 for 30 min, saturated with PBS containing 3% of BSA and were incubated 1 h with anti-beta III tubulin antibody (Sigma) at 1/10 000 in PBS containing 0.5% of BSA. Cells were washed three times with PBS containing 0.5% of BSA, and they were incubated 1 h with goat anti-mouse antibody coupled with AF488 (Invitrogen A 11001) diluted at 1/1000 in PBS containing 0.5% of BSA. Finally, nuclei were staining with DAPI 1 mg/ml at 1/1000 in PBS containing 0.5% of BSA. After rinsing with PBS, the plate was filmed and neurite networks were examined and analyzed using High-Content Screening (CellInsight, Thermo Scientific). The average number of neurites per neuron and the average total length of neurites per neuron were the main parameters analyzed. Analysis of data was performed using analysis of variance (ANOVA). The Fisher's Protected Least Significant Difference test was used for multiple comparisons. A p value≤0.05 was considered significant. The software used is StatView 5.0 from SAS Institut.

T1 sequence (P28223 whole entry): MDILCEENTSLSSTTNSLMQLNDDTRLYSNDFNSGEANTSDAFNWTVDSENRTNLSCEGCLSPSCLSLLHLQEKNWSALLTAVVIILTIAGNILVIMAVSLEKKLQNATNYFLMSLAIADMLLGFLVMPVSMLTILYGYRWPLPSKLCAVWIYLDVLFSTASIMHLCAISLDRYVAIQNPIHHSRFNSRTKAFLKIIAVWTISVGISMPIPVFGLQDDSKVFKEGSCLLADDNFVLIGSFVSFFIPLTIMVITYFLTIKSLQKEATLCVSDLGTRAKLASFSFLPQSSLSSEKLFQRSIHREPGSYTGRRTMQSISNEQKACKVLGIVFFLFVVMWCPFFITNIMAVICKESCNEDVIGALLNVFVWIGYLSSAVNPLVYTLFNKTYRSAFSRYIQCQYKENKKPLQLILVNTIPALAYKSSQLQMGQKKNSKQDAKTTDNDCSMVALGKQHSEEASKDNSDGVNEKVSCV

| Structure (SMILES) | IC50 (5-HT2A [1]) | EC50 (5-HT2A [2]) | IC50 (5-HT2A [3]) | Increase in Neurite Branching (rat cortical neurons) | Increase in Neurite Length (rat cortical neurons) | Increase in Neurite Number (rat cortical neurons) |
| --- | --- | --- | --- | --- | --- | --- |
| CN1CCc2[nH]c3cc(OCc4ccccc4)ccc3c2CC1 [Compound 1, 8-(benzyloxy)-3-methyl-1,2,3,4,5,6-hexahydroazepino[4,5-b]indole] | 101 to 1000 nM | > 10000 nM | 101 to 1000 nM | B | A | A |
| CN1CCc2[nH]c3cccc(OCc4ccccc4)c3c2CC1 [Compound 2, 10-(benzyloxy)-3-methyl-1,2,3,4,5,6-hexahydroazepino[4,5-b]indole] | 10 to 100 nM | > 10000 nM | < 10 nM | B | A | A |
| c1ccc(COc2ccc3c4c([nH]c3c2)CCNCC4)cc1 [Compound 3, 8-(benzyloxy)-1,2,3,4,5,6-hexahydroazepino[4,5-b]indole] | – | 101 to 1000 nM | 101 to 1000 nM | A | A | A |
| c1ccc(COc2cccc3[nH]c4c(c23)CCNCC4)cc1 [Compound 4, 10-(benzyloxy)-1,2,3,4,5,6-hexahydroazepino[4,5-b]indole] | – | < 10 nM | 10 to 100 nM | – | B | B |
| Cn1c2c(c3ccc(OCc4ccccc4)cc31)CCNCC2 [Compound 5, 8-(benzyloxy)-6-methyl-1,2,3,4,5,6-hexahydroazepino[4,5-b]indole] | 101 to 1000 nM | > 10000 nM | 101 to 1000 nM | B | B | B |
| CN1CCc2c(n(C)c3cc(OCc4ccccc4)ccc23)CC1 [Compound 6, 8-(benzyloxy)-3,6-dimethyl-1,2,3,4,5,6-hexahydroazepino[4,5-b]indole] | 101 to 1000 nM | > 10000 nM | 101 to 1000 nM | B | B | B |
| Fc1ccc(COc2ccc3c4c([nH]c3c2)CCNCC4)cc1 [Compound 7, 8-((4-fluorobenzyl)oxy)~1,2,3,4,5,6-hexahydroazepino[4,5-b]indole] | 101 to 1000 nM | 101 to 1000 nM | 101 to 1000 nM | B | B | B |
| CN1CCc2[nH]c3cc(OCc4ccc(F)cc4)ccc3c2CC1 [Compound 8, 8-((4-fluorobenzyl)oxy)-3-methyl-1,2,3,4,5,6-hexahydroazepino[4,5-b]indole] | 10 to 100 nM | > 10000 nM | 101 to 1000 nM | A | A | A |
| Cn1c2c(c3ccc(OCc4ccc(F)cc4)cc31)CCNCC2 [Compound 9, 8-((4-fluorobenzyl)oxy)-6-methyl-1,2,3,4,5,6-hexahydroazepino[4,5-b]indole] | 101 to 1000 nM | > 10000 nM | 101 to 1000 nM | B | B | B |
| CN1CCc2c(n(C)c3cc(OCc4ccc(F)cc4)ccc23)CC1 [Compound 10, 8-((4-fluorobenzyl)oxy)-3,6-dimethyl-1,2,3,4,5,6-hexahydroazepino[4,5-b]indole] | 10 to 100 nM | > 10000 nM | 101 to 1000 nM | – | B | – |
| c1ccc(Oc2ccc3c4c([nH]c3c2)CCNCC4)cc1 [Compound 11, 8-phenoxy-1,2,3,4,5,6-hexahydroazepino[4,5-b]indole] | 101 to 1000 nM | 1000 to 10000 nM | 1000 to 10000 nM | – | – | – |
| Cn1c2c(c3ccc(Oc4ccccc4)cc31)CCNCC2 [Compound 13, 6-methyl-8-phenoxy-1,2,3,4,5,6-hexahydroazepino[4,5-b]indole] | – | 101 to 1000 nM | 1000 to 10000 nM | – | – | – |
| Fc1ccc(Oc2ccc3c4c([nH]c3c2)CCNCC4)cc1 [Compound 15, 8-(4-fluorophenoxy)-1,2,3,4,5,6-hexahydroazepino[4,5-b]indole] | – | 101 to 1000 nM | 101 to 1000 nM | A | A | A |
| Cn1c2c(c3ccc(Oc4ccc(F)cc4)cc31)CCNCC2 [Compound 17, 8-(4-fluorophenoxy)-6-methyl-1,2,3,4,5,6-hexahydroazepino[4,5-b]indole] | – | 101 to 1000 nM | 101 to 1000 nM | – | – | – |
| c1ccc(Oc2cccc3[nH]c4c(c23)CCNCC4)cc1 [Compound 20, 10-phenoxy-1,2,3,4,5,6-hexahydroazepino[4,5-b]indole] | – | 10 to 100 nM | 10 to 100 nM | – | B | – |
| Fc1ccc(Oc2cccc3[nH]c4c(c23)CCNCC4)cc1 [Compound 21, 10-(4-fluorophenoxy)-1,2,3,4,5,6-hexahydroazepino[4,5-b]indole] | – | 10 to 100 nM | 10 to 100 nM | B | B | B |
| Cn1c2c(c3c(Oc4ccc(F)cc4)cccc31)CCNCC2 [Compound 23, 10-(4-fluorophenoxy)-6-methyl-1,2,3,4,5,6-hexahydroazepino[4,5-b]indole] | – | 101 to 1000 nM | 10 to 100 nM | – | – | – |
| c1ccc(COc2cccc3c4c([nH]c23)CCNCC4)cc1 [Compound 27, 7-(benzyloxy)-1,2,3,4,5,6-hexahydroazepino[4,5-b]indole] | – | 101 to 1000 nM | 101 to 1000 nM | – | A | – |
